The results in this text go back to BindingDB's records for doi:10.1021/jm030871u (2003).

Residues, ends and D or L forms follow the SMILES beside them. *: point of attachment. X1 = CC(C)CCC[C@@H](C)[C@H]1CCC2C3CC=C4C[C@H](SC[C@@H]5CCN6CC[C@@H](CSCC(=O)*)NC6=N5)CC[C@]4(C)C3CC[C@@]21C; X2 = CC(C)(C)[Si](OCC1CCN2CCC(CSCC(=O)*)NC2=N1)(c1ccccc1)c1ccccc1; OBn = c1ccc(CO*)cc1; Bn = c1ccc(C*)cc1

The target of this experiment is Human immunodeficiency virus type 1 protease (Human immunodeficiency virus 1, UniProt Q72874). The experiment can be described thus: Competitive inhibition against HIV-1 Protease.

By Ki is commonly meant a measure of affinity in units of concentration, obtained from inhibition or displacement. Read a high Ki as lower affinity. In turn, `CC(C)CCC[C@@H](C)[C@H]1CCC2C3CC=C4C[C@H](SC[C@@H]5CCN6CC[C@@H](CSCC(=O)NCC(=O)N[C@@H](C)C(=O)N[C@H](C(=O)N[C@@H](CC(C)C)C(=O)N[C@@H](CC(N)=O)C(=O)N[C@@H](Cc7ccccc7)C(=O)OCc7ccccc7)[C@@H](C)OCc7ccccc7)NC6=N5)CC[C@]4(C)C3CC[C@@]21C` (some centres not stated) (X1-GAT(Bn)LNF-OBn) showed a Ki of 0.4 µM. `CC[C@H](C)[C@H](NC(=O)CNC(=O)CSCC1CCN2CCC(CO[Si](c3ccccc3)(c3ccccc3)C(C)(C)C)N=C2N1)C(=O)N[C@@H](CO)C(=O)N[C@@H](Cc1ccc(O)cc1)C(=O)N[C@@H](CC(N)=O)C(=O)N[C@@H](CC(C)C)C(=O)OC` (some centres not stated) [Bicyclic Guanidinium Subunit] (X2-GISYNL-OMe): affinity was put at a Ki of 6 µM.
